In patent US20140113945A1, “Novel Pyrrole Inhibitors of S-Nitrosoglutathione Reductase as Therapeutic Agents for Liver Toxicity” (priority 2011, published 2014):
Read-outs that look alike come from different tables or passages of the source. Marks after values point to notes of the source that are not given here.

System: acetaminophen (APAP) induced liver toxicity
Conditions: for mean ALT / mean AST / increase in ALT compared to control saline group / increase in AST compared to control saline group / reduction in ALT compared to APAP only / reduction in AST compared to APAP only: mice; for mean ALT / mean AST: substance IV + APAP 300 mg/kg PO; for increase in ALT compared to control saline group / increase in AST compared to control saline group / reduction in ALT compared to APAP only / reduction in AST compared to APAP only: substance IV after APAP 300 mg/kg PO, 24-hour; for Alkaline phosphatase (ALK) levels: mouse, in vivo

| Structure (SMILES) | mean ALT (24-hours post-APAP) | mean AST (24-hours post-APAP) | mean ALT (72-hours post-APAP) | mean AST (72-hours post-APAP) | mean ALT (6 hours post-APAP) | mean AST (6 hours post-APAP) | increase in ALT compared to control saline group [fold] | increase in AST compared to control saline group [fold] | reduction in ALT compared to APAP only [%] | reduction in AST compared to APAP only [%] | Alkaline phosphatase (ALK) levels |
| --- | --- | --- | --- | --- | --- | --- | --- | --- | --- | --- | --- |
| Cc1cc(C(N)=O)ccc1-n1c(CCC(=O)O)ccc1-c1ccc(Cl)cc1O [Compound 41] | 4749.4 | 3783.6 | 97.6 | 492.6 | 3608.0 | 3741.2 | 43 | 29 | 23 | 34 | did not significantly differ from normal controls |
| N[C@@H](CCC(=O)N[C@@H](CSN=O)C(=O)NCC(=O)O)C(=O)O [GSNO, S-nitrosoglutathione] | 1454.3 | 518.0* | 31.8* | 55.0* | 571.8* | 484.5* | ~5 | ~4 | 76 | 91 | did not significantly differ from normal controls |
